In US11873298B2, “Compounds and uses thereof” (JANSSEN PHARMACEUTICA NV, priority 2017, dated 2024) one finds IC50 data, which are given here for 47 compounds.

A value given as a limit tells only on which side of the number the result lay.

One assay deals with T1, SCD1 (Homo sapiens, UniProt O00767).
T1 construct: host or cells: S. cerevisiae ole1Δ strain (W303 pdr1Δ pdr3Δ background), plasmid pRS316 with TDH3 promoter and CYC1 terminator
T1 sequence (O00767 1-359): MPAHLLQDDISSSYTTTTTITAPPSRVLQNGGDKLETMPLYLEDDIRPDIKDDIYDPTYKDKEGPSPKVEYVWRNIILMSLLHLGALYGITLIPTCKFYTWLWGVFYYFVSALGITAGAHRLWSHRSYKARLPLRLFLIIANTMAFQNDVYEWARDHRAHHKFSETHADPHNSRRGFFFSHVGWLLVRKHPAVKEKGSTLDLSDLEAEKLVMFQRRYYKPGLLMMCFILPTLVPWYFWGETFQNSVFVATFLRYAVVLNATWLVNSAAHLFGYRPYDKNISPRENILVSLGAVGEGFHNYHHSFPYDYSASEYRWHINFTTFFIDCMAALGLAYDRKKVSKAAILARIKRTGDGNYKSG
Description: Growth inhibition of humanized yeast strain expressing SCD1 as sole desaturase. It is filed as cell-based. The note with it: growth inhibition of humanized yeast strain expressing human SCD1. The procedure:
(§1) Strain oleΔ (yeast ole1 deletion mutant) was constructed by deleting OLE1 with NAT-MX6 in BY4741, amplifying the deletion cassette from the genomic DNA of the resulting strain with primers flanking the ORF by 1000 bp upstream and downstream, transforming the resulting deletion cassette into W303 pdr1Δ pdr3Δ, and plating transformants on YPD media containing G418 (200 μg/mL) and nourseothricin ([…]) with 0.01% TWEEN®-20 and 0.5 mM oleic and palmitoleic acids.
(§2) The coding sequence of yeast OLE1 was also cloned into this plasmid). These clones were then transformed into the ole1Δ strain and plated on CSM-Ura media (CSM lacking uracil) with 2% glucose (w/v) and independent colonies were isolated and amplified.
(§3) All compound profiling experiments were performed using the same basic protocol. Different genetic backgrounds (e.g., gene deletions) or conditions (e.g., addition of oleic and palmitoleic acid) were replaced as indicated below.
(§4) Yeast were cultured using standard techniques in complete synthetic media (CSM) and yeast nitrogen base supplemented with 2% (w/v) carbon source (glucose, raffinose, or galactose) to regulate the expression of the toxic disease protein. An initial starter culture was inoculated in 3 mL CSM-Glucose media and incubated overnight in a 30° C. shaker incubator (225 rpm). Saturated morning cultures were then diluted 1:20 in fresh CSM-Raffinose media and grown for 6 h to an OD600 (optical density) of ˜0.4-0.8 at 30° C. with shaking.
(§5) Compound administration was performed in two separate steps. First, 15 μL of CSM-Galactose (induces expression of toxic protein) was dispensed into clear 384 well assay plates using a MULTIDROP™ Combi reagent dispenser. […] The cultures described above were then diluted to a 2× concentration (0.03 and 0.08 for alpha-synuclein and ApoE, final ODsoo of 0.015 and 0.04) in CSM-Galactose. For wild-type and Ole1/SCD1/SCD5 plasmid-containing strains, the 2× cell density was 0.02. […] For 96-well assays (FIGS. 1A and 1B), compound dilutions in DMSO were generated in 96 well plates and 1 μL was manually pipetted into 96 well clear bottom assay plates.
(§6) For experiments using a plasmid-borne copy of Ole1, SCD1, or SCD5 (FIGS. 3B, 6, and 7), media lacking uracil (SX-Ura, where X is glucose, raffinose, or galactose), was used for all steps of the compound profiling protocol to ensure its maintenance throughout the assay.
(§7) After yeast delivery, assay plates were incubated under humidified conditions at 30° C. for 24 to 40 h. ApoE4 rescue experiments were stopped at 24 h, aSyn experiments at 40 h, Ole1 at 24 h, and SCD1/SCD5 at 40 h. The growth of yeast was monitored by reading the ODsoo of each well using a microplate reader (Perkin Elmer EnVision™).
As for `CC(C)n1ncc2ccc(-c3noc(N4CCN(C(=O)OC5CC5)CC4)n3)cc21` [Compound 689], the IC50 is above 45000 nM.

The assay is the same for the next values; noted with them: humanized yeast strain expressing SCD1.
On to `CC(C)n1ncc2ccc(-c3noc(C4CCCN(C(=O)OC(C)(C)C)C4)n3)cc21` (stereo not drawn) [Compound 563], for which the IC50 was above 45000 nM. The compound `Cc1nn(C)c2cc(-c3noc(C4CCN(c5nc6ccccc6o5)CC4)n3)ccc12` [Compound 514] had an IC50 above 45000 nM.

The same assay, now with this note: humanized yeast strain, 40 h.
`CC(C)(C)OC(=O)N1CCC(c2nc(-c3ccc4cn[nH]c4c3)no2)CC1` [Compound 912] gave an IC50 above 45000 nM. The same measure, in the same setting: the value for `Cn1ccc(-c2cc(-c3nc(C4CCN(C(=O)OC(C)(C)C)CC4)no3)ccn2)n1` [Compound 1183] was above 45000 nM; that for `COC(=O)N1CCN(c2noc(-c3ccnc(NC4COC4)c3)n2)CC1` [Compound 947] was above 45000 nM; that for `O=C(N1CCC(c2noc(-c3ccc4cnn(C5COC5)c4c3)n2)CC1)C12CC(F)(C1)C2` [Compound 895] was above 45000 nM. Still for that read-out and setting: the value for `COC(=O)N1CCC(c2noc(-c3ccc4cnn([C@@H]5CCOC5)c4c3)n2)CC1` [Compound 876] was above 45000 nM. The same measure, in the same setting: with `COC(=O)N1CCC(c2noc(-c3ccc4cnn([C@@H]5CCOC5)c4c3)n2)CC1` [Compound 877] the figure was above 45000 nM.

The same assay, now with this note: yeast strain expressing human SCD1 as sole desaturase; Table 8.
`Cc1cc(-c2nc(C3CCN(C(=O)OC(C)(C)C)CC3)no2)cc(C2CCOC2)n1` (stereo not drawn) [Compound 1266] showed a half-maximal inhibitory concentration (IC50) of 31700 nM.

In turn, `CC(C)(C)OC(=O)N1CCC(c2noc(-c3ccc4cnn([C@H]5CCOC5)c4c3)n2)CC1` [Compound 1201] yielded an IC50 of 1400 nM.

For the compound `CC1(OC(=O)N2CCC(c3noc(-c4ccc5cnn([C@H]6CCOC6)c5c4)n3)CC2)CC1` [Compound 1209], inhibition was half-maximal at 12600 nM (IC50).

For another assay, the target named is T2, SCD5 (Homo sapiens, UniProt Q86SK9).
T2 construct: host or cells: S. cerevisiae ole1Δ strain (W303 pdr1Δ pdr3Δ background), plasmid pRS316 with TDH3 promoter and CYC1 terminator
T2 sequence (Q86SK9 1-330): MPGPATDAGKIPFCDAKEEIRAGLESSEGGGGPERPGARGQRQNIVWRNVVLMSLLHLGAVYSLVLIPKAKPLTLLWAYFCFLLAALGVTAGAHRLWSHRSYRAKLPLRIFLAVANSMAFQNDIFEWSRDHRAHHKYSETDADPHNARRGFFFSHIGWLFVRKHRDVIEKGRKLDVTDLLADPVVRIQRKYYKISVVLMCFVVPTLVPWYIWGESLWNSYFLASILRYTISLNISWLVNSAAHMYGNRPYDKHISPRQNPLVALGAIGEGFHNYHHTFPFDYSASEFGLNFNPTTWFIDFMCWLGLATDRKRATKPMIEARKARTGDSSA
Description: Growth inhibition of humanized yeast strain expressing SCD5 as sole desaturase. It is filed as cell-based. The note with it: growth inhibition of humanized yeast strain expressing human SCD5. How it is done: as §1, §2, §3, §4, §5, §6, §7
`CC(C)n1ncc2ccc(-c3noc(N4CCN(C(=O)OC5CC5)CC4)n3)cc21` [Compound 689] yielded a half-inhibitory concentration (IC50) of 657 nM.

The assay is the same for the next values; noted with them: humanized yeast strain expressing SCD5.
For `CC(C)n1ncc2ccc(-c3noc(C4CCCN(C(=O)OC(C)(C)C)C4)n3)cc21` (stereo not drawn) [Compound 563], the 50% inhibitory concentration (IC50) was above 45000 nM. The same measure, in the same setting: with `Cc1nn(C)c2cc(-c3noc(C4CCN(c5nc6ccccc6o5)CC4)n3)ccc12` [Compound 514] the figure was above 45000 nM; with `CC(C)n1ncc2ccc(-c3noc(N4C[C@@H]5CNC[C@H]5C4)n3)cc21` [Compound 530], above 45000 nM; with `CC(C)n1ncc2ccc(-c3noc(N4CCN(C(=O)CC5(C)CC5)CC4)n3)cc21` [Compound 495], 1920 nM. On the same count and under the same terms, the value for `CC(C)n1ncc2ccc(-c3noc(C4CCN(C(=O)CNC(=O)c5cccc(C#N)c5)CC4)n3)cc21` [Compound 556] was above 45000 nM; that for `Cc1nn(C)c2cc(-c3noc([C@@H]4CCN(C(=O)CNC(=O)c5ccccc5)CC4(F)F)n3)ccc12` [Compound 577] was above 45000 nM; that for `CC(C)n1ncc2ccc(-c3noc([C@H]4CC[C@H](NC(=O)OC(C)(C)C)CC4)n3)cc21` [Compound 537] was above 45000 nM. The same measure, in the same setting: with `CC1(CC(=O)N2CCC(c3nc(-c4ccc5cnn(C6COC6)c5c4)no3)CC2)CC1` [Compound 559] the figure was 1190 nM; with `N#Cc1cccc(N2C[C@@H](C(=O)N3CCC(c4nc(-c5ccc6cnn(C7COC7)c6c5)no4)CC3)CC2=O)c1` [Compound 599], above 45000 nM; with `CC(C)N1C(=O)CCc2ccc(-c3noc(C4CCN(C(=O)OC(C)(C)C)CC4)n3)cc21` [Compound 572], 15000 nM. The compound `CC(C)n1ncc2ccc(N3CC4(CCN(C(=O)OC5CC5)CC4)C3)cc21` [Compound 594] yielded an IC50 of 11800 nM. Same read-out and setting: with `Cc1nn(C)c2cc(-c3noc(C4CCN(C(=O)CC5COC5)CC4)n3)ccc12` [Compound 592] the figure was above 45000 nM; with `CC(C)n1ncc2ccc(-c3nc(C4CCN(C(=O)c5ccc(Cl)cc5)CC4)no3)cc21` [Compound 505], 669 nM. The same measure, in the same setting: with `CC(C)n1ncc2ccc(N3CC4(CCNCC4)C3)cc21` [Compound 538] the figure was above 45000 nM; with `CC(C)n1ncc2ccc(-c3noc(C4CCN(C(=O)[C@H]5CC(=O)N(c6cccc(C#N)c6)C5)CC4)n3)cc21` [Compound 529], above 45000 nM.

Staying with this assay, now noted: humanized yeast strain, 40 h.
`CC(C)(C)OC(=O)N1CCC(c2nc(-c3ccc4cn[nH]c4c3)no2)CC1` [Compound 912] showed a half-maximal inhibitory concentration (IC50) of 1980 nM. The same measure, in the same setting: with `Cn1ccc(-c2cc(-c3nc(C4CCN(C(=O)OC(C)(C)C)CC4)no3)ccn2)n1` [Compound 1183] the figure was above 45000 nM; with `COC(=O)N1CCN(c2noc(-c3ccnc(NC4COC4)c3)n2)CC1` [Compound 947], above 45000 nM; with `O=C(N1CCC(c2noc(-c3ccc4cnn(C5COC5)c4c3)n2)CC1)C12CC(F)(C1)C2` [Compound 895], 10 nM.

The assay is the same for the next values; noted with them: yeast strain expressing human SCD5 as sole desaturase; Table 8.
The compound `O=C(N1CCC(c2noc(-c3cc(C4CCOC4)ncc3F)n2)CC1)C1(F)CCC1` (stereo not drawn) [Compound 1275] registered an IC50 of 20 nM. `COC(=O)N1CCC(c2noc(N3CCc4cnn(C(C)C)c4C3)n2)CC1` [Compound 1260] showed an IC50 of 250 nM. The same measure, in the same setting: with `CC(C)(C)OC(=O)N1CCC(c2noc(-c3ccnc(-c4cnoc4)c3)n2)CC1` [Compound 1213] the figure was 60 nM; with `CC1CN(c2cc(-c3nc(C4CCN(C(=O)C(C)C)CC4)no3)ccc2F)CC(C)O1` (stereo not drawn) [Compound 1305], 5390 nM. `CC(C)(C)OC(=O)N1CCC(c2noc(-c3ccnc(-c4cocn4)c3)n2)CC1` [Compound 1293] yielded a concentration for half-maximal inhibition (IC50) of 490 nM. On the same count and under the same terms, the value for `O=C(OC1CCC1)N1CCC(c2noc(-c3ccn(C4COC4)c(=O)c3)n2)CC1` [Compound 1292] was 15100 nM; that for `CCC(=O)N1CCC(c2noc(-c3cc(N4CCOCC4)c(F)cn3)n2)CC1` [Compound 1276] was 4680 nM; that for `CC(C)(C)OC(=O)N1CCC(c2noc(-c3ccc(F)c(N4CCOC5(CC5)C4)c3)n2)CC1` [Compound 1303] was 50 nM. On to `CC(C)(C)OC(=O)N1CCC(c2noc(-c3cc(C4CCOC4)c(F)cn3)n2)CC1` (stereo not drawn) [Compound 1284], for which the IC50 was 20 nM. Compound `CCC(=O)N1CCC(c2cc(-c3cc4c(cn3)cnn4C3COC3)on2)CC1` [Compound 1227] had an IC50 of 960 nM. Compound `Cn1cnc(-c2cc(-c3nc(C4CCN(C(=O)OC(C)(C)C)CC4)no3)ccn2)c1` [Compound 1294] registered an IC50 of 190 nM.

As to `CC(C)(C)OC(=O)N1CCC(c2cc(-c3cnc4cnn(C5COC5)c4c3)on2)CC1` [Compound 1225], 120 nM corresponded to half-maximal inhibition (IC50). On the same count and under the same terms, with `CC(C)C(=O)N1CCC(c2cc(-c3cc4c(cn3)cnn4C3COC3)on2)CC1` [Compound 1226] the figure was 20 nM. For `CC(C)C(=O)N1CCC(c2noc(-c3ccc(F)c(N4CCOC5(CC5)C4)c3)n2)CC1` [Compound 1302], the concentration for half-maximal inhibition (IC50) stood at 900 nM. On the same count and under the same terms, with `CC1(OC(=O)N2CCC(c3noc(-c4cncc(N5CCC(F)(F)C5)c4)n3)CC2)CC1` [Compound 1198] the figure was 1720 nM; with `CC1CN(c2cc(-c3nc(C4CCN(C(=O)OC(C)(C)C)CC4)no3)ccc2F)CC(C)O1` (stereo not drawn) [Compound 1282], 220 nM. On the same count and under the same terms, with `O=C(C1CCC1)N1CCC(c2noc(-c3ccc(F)c(N4CCOCC4)c3)n2)CC1` [Compound 1258] the figure was 40 nM; with `O=C(C1CCC1)N1CCC(c2noc(-c3cc(C4CCOC4)ccn3)n2)CC1` (stereo not drawn) [Compound 1285], 900 nM; with `COC(=O)C(O)Cn1ncc2ccc(-c3nc(C4CCN(C(=O)OC(C)(C)C)CC4)no3)cc21` (stereo not drawn) [Compound 1244], 760 nM. With `CC1(OC(=O)N2CCC(c3noc(-c4ccnc(-c5cnoc5)c4)n3)CC2)CC1` [Compound 1220], the half-inhibitory concentration (IC50) is 100 nM. On the same count and under the same terms, the value for `CC(C)(C)OC(=O)N1CCC(c2noc(-c3cc(N4CCOCC4)c(F)cn3)n2)CC1` [Compound 1273] was 20 nM; that for `CC(C)(C)OC(=O)N1CCC(c2noc(-c3cc(N4CCC(F)(F)C4)c(F)cn3)n2)CC1` [Compound 1287] was 340 nM.

By IC50 is commonly meant the concentration at which inhibition is half-maximal. Low readings indicate inhibition by little substance, high ones a need for much substance.
